Measurements taken from US20240239786A1, “COMPOSITIONS AND METHODS FOR THE TREATMENT AND PREVENTION OF CANCER” (Yale University, priority 2021, published 2024).

How the values were obtained:
PEO4ip xenografts = assay: Survival of mice bearing peritoneal PEO4ip xenografts; assay type: in vivo, SCID-Beige mice; settings: for effect on survival time of mice: olaparib 50 mg/kg, DB4 10 mg/kg, i.p. daily for 4 weeks
Method: SCID-Beige mice implanted ip with PEO4ip cells were treated daily (qd) with DB4 (10 mg/kg), olaparib (50 mg/kg), and the DB4-olaparib combination for 4 weeks. Kaplan Meier analysis was performed to determine the survival time of mice following treatments. Statistical significance was determined by the Mantel-Cox test comparing the control with each treatment group (N=4-5). […] DB4 given every two days (q2d) in the DB4-olaparib combination for 4 or 6 weeks (n=4-5). […] NOD CRISPR Prkdc Il2r Gamma (NCG) mice implanted sc with SKOV3 cells were treated as described in FIG. 10C for 4 weeks during which the tumor size was measured. Statistical significance was determined by the Wilcoxon matched-pairs signed test comparing the control with each treatment group and comparing between treatment groups. Data are means±SE (N=4-5). *, p<0.05; **, p<0.01.
First, the efficacy of the combination of DB4 and olaparib to treat PEO4ip tumor xenografts, as determined by the median survival time, was evaluated in a peritoneal mouse model (Lin Z P et al., 2018, PLOS One, 13:e0207399). Mice were implanted intraperitoneally (i.p.) with PEO4ip cells and then treated i.p. with olaparib, DB4, or both drugs in combination daily for 4 weeks. The survival endpoint (a 50% increase in abdominal circumference) for vehicle-treated control mice ranged from 55-65 days (8-9 weeks).
Next, these experiments were repeated with modified treatment schedules of DB4 given every two day (q2d) for 4-week and 6-week treatment periods.
Five to six weeks old female SCID-Beige mice were purchased from Envigo (Indianapolis, IN). PEO4ip cells (Lin Z P et al., 2018, PLOS One, 13:e0207399) suspended in 100 μL serum-free medium were implanted i.p. (1×10^7 cells per mouse). Six to eight weeks old female NCG (NOD-Prkdcem26Cd52Il2rgem26Cd22/NjuCrl) mice were purchased from Charles River (Wilmington, MA). SKOV3 cells suspended in 100 μL serum-free medium were mixed with 50 μL Matrigel (BD Biosciences) and implanted s.c. in the right dorsal medial area (1×10^7 cells per mouse). […] The abdominal circumference of PEO4ip-bearing mice reached a 50% increase about 50-70 days.
Mice were randomly assigned to treatment groups (n=4-5) and drug treatment was initiated 3-7 days after tumor implantation. The control group of mice received i.p. treatment with vehicle (2% DMSO) and treatment groups of mice received i.p. treatment for a period of 4 or 6 weeks as follows: Olaparib (50 mg/kg) once daily for 5 consecutive days per week; DB4 (10 mg/kg) once daily for 5 consecutive days (M, T, W, R, F) per week or once every 2 days (M, W, F) per week; The combined treatment with olaparib and DB4 at the dose and schedule described above.
The progression of PEO4ip tumor xenografts in mice was evaluated by measuring the size of the circumference at the lower one-third of the abdominal area with the mouse head positioned upward. A 50% increase in the abdominal circumference was defined as the endpoint of survival as described previously (Lin Z P et al., 2018, PLOS One, 13:e0207399). […] Kaplan-Meier survival curve, median survival time, and statistical analysis was performed using the Prism software (GraphPad). Comparisons were made by the Mantel-Cox test comparing the control with each treatment group. The growth of SKOV3 tumor xenografts was evaluated by the size of s.c. tumor using a digital caliper. Tumor volumes were calculated using the formula: length×width2/2. Statistical difference in the tumor size was determined by the Wilcoxon matched-pairs signed test comparing the control with each treatment group and comparing between treatment groups. Body weights of mice were measured on every treatment day before administration and on the same schedule as tumor measurements during the treatment period.

DSB end resection = assay: Western blot of DSB end resection with etoposide in PEO4 cells; assay type: cell-based; settings: for Chk1 phosphorylation with/without etoposide: 5 μM etoposide 4 hr; for RPA32 phosphorylation, drug alone: 30 μM DB4, 1 μM triapine or 5 μM etoposide; for etoposide-induced RPA32 phosphorylation: pre-treated 1 hr, then 5 μM etoposide 4 hr
Method: PEO1 cells were treated with 30 μM DB4 or 1 μM triapine for indicated times, pulsed with EdU for 1 hr and subsequently assayed for DNA synthesis inhibition as described in FIG. 2B. The bivariate plots of Alexa Fluor 488 and PE-Cy5 were gated to determine % S phase cells. […] PEO4 cells were treated with 30 μM DB4 or 1 μM triapine for indicated times, pulsed with EdU for 1 hr and subsequently assayed for DNA synthesis inhibition as described in FIG. 2B. The bivariate plots of Alexa Fluor 488 and PE-Cy5 were gated to determine % S phase cells. […] The bivariate plots of Alexa Fluor 488 and PE-Cy5 shown in FIG. 6A and FIG. 6B were gated to determine % cells in G1, S, and G2/M phases. […] PEO4 cells were treated with 30 μM DB4 or 1 μM triapine for various time periods and subjected to western blot analysis for the levels of cyclin A2, p-CDK1/2, p-H1, p-Chk1, and HSC70. The HSC70 protein level was used as a loading control. Cropped gel images of protein bands are presented. Cyclin A2, p-CDK1/2, and p-H1 bands were from re-probing the same blot. p-Chk1 and HSC70 bands were from re-probing the same duplicated blot. […] The CDK2 activity is expressed by the percentage of the p-HI levels relative to that of the 0 hr control is shown. […] Protein was analyzed by western blotting for p-Chk1, p-ATR, p-RPA32, γH2AX, and HSC70. Cropped gel images of protein bands are presented. All protein bands were from re-probing the same blot. DSB end resection is assessed by the level of p-RPA32.
To investigate the effects of DB4 on DSB end resection, the level of RPA32 phosphorylation, indicative of CDK2-dependent DSB end resection, was determined.
The methodology was described previously (Lin Z P et al., 2014, Molecular Cancer Res, 12:381-393; Ratner E S et al., 2016, Br J Cancer, 114:777-786). The anti-HSC70 antibody was purchased from Santa Cruz (Santa Cruz, CA). Anti-cyclin A2, anti-phospho-ATR (Thr-1981), anti-phospho-Chk1 (Ser-345), anti-phospho-CDK1/2 (Tyr-15), and anti-Y-H2AX (Ser-139) antibodies were from Cell Signaling (Danvers, MA). Anti-phospho-RPA32 (S4/S8) and anti-BRCA2 antibodies were from Bethyl Laboratories (Montgomery, TX). Anti-phospho-histone H1 antibody was from Millipore-Sigma (Burlington, MA). To avoid the cross-reaction of secondary antibodies with previously probed primary antibodies, blots were stripped and re-probed with next primary antibodies raised in a different species in an alternate fashion. All images were acquired and processed using the G: BOX gel documentation system and the GeneSnap software (Syngene, Frederick, MD). Brightness and contrast of images were applied equally across the entire gel/blot image and to controls. Images of protein bands were cropped and only brightness-adjusted using the PowerPoint software (Microsoft, Redmond, WA). Quantification of the protein band intensity was performed using the ImageJ software (NIH, Bethesda, MD).

[1] = Table 2: olaparib 50 mg/kg qd, DB4 10 mg/kg qd, i.p., treated daily
[2] = Table 3: single agents, olaparib 50 mg/kg qd, DB4 10 mg/kg q2d

Structure (SMILES) | Median Survival Time (PEO4ip xenografts; [1]) | Median Survival Time (PEO4ip xenografts; [2]) | effect on survival time of mice (PEO4ip xenografts) | ATR phosphorylation (DSB end resection) | Chk1 phosphorylation with/without etoposide (DSB end resection) | RPA32 phosphorylation, drug alone (DSB end resection) | etoposide-induced RPA32 phosphorylation (DSB end resection)
O=C(c1cc(Cc2n[nH]c(=O)c3ccccc23)ccc1F)N1CCN(C(=O)C2CC2)CC1 [olaparib, reference compound] | 66 days | 55 days | no effects on the survival time of mice | – | – | – | –
NC(=S)NN=Cc1ncccc1N [triapine, 3-aminopyridine-2-carboxaldehyde-thiosemicarbazone, reference compound] | – | – | – | induced ATR and Chk1 phosphorylation independently of etoposide treatment | induced ATR and Chk1 phosphorylation independently of etoposide treatment | induced a minor RPA32 phosphorylation | blocked phosphorylation of RPA32, induced by etoposide
C=CCn1c(SCc2cccc(Cl)c2)nnc1C1CCN(Cc2nc3ccccc3s2)CC1 [DB4, 2-[(4-{4-allyl-5-[(3-chlorobenzyl)thio]-4H-1,2,4-triazol-3-yl}-1-piperidinyl)methyl]-1,3-benzothiazole] | 67 days | 56 days | no effects on the survival time of mice | weakly induce ATR phosphorylation | only synergized with etoposide to induce Chk1 phosphorylation | no effect on basal RPA32 phosphorylation | augmented etoposide-induced RPA32 phosphorylation
